Measurements: patent US12031897B2, “Target-locking single-molecule nanoscopy” (Memorial Sloan Kettering Cancer Center, priority 2019, dated 2024)

Tests used:
[1] = system: Nanog transcription site; assay: Nanog transcription bursting (MCP-mNeonGreen, NMG mESCs); assay type: cell-based, mouse
Source text: (§1) It is discovered that Pol II, Sox2 and Brd4 form foci at Nanog transcription sites, with nanoscale organization akin to Pou5f1—colocalization of Pol II with 3′UTR-tagged nascent RNA and resolvable separation of enhancer-associated regulatory factors (FIGS. 9A-9D).
If accumulated Brd4 at Nanog acts mainly as a Pol II pause-release factor, upon Brd4 inhibition a reduction in burst amplitude would be expected. […] Thus, beyond controlling Pol II pause-release, Brd4 regulates transcription bursting, exemplified by the striking correspondence between burst frequency and enhancer-associated Brd4 cluster size. Bursting kinetics cannot be captured by static end-point assays that provide information averaged over a population of cells (e.g. ChIP, NET-Seq etc).
Wide-Field Cell Imaging Experiments. Live cell imaging experiments (tdPCP-EGFP and MCP-mNeonGreen tracking). For time-lapse imaging, a z-stack of 11 frames at 1 frame/second was acquired, by stepping the sample along the z-axis using the nanopositioning stage (250 nm steps). The CCD data were analyzed using IDL 6.4 (ITTVIS). Maximum projection images were calculated for each stack, and the resulting 11 sec/frame movie was used to track the intensities of individual tdPCP-EGFP-tagged transcription sites. A particle tracking routine (Crocker and Grier, 1996) was used for finding the positions of the transcription site in each frame and linking them into a 2D trajectory. The intensity trace of tdPCP-EGFP at the transcription site was corrected for photo-bleaching using the time trace of tdPCP-EGFP in a nearby nuclear region. The auto-correlation function was calculated (for the tdPCP-EGFP fluctuation analysis), or the data were imported in Origin 8.5.0 (OriginLab) and the trace fitted to a single-exponential decay (for the transcription inhibition experiments).
NMG mESCs contain 24×MS2 cassettes integrated in the 3′-UTR of both Nanog alleles and also stably express MCP-mNeonGreen (Ochiai et al., 2014).

[2] = biological target: T1, Brd4 foci at the Nanog locus (Mus musculus, UniProt Q9ESU6); assay: Brd4 cluster signal at Nanog vs. [JQ1]; assay type: cell-based; settings: mESCs
T1 construct: integrating a SNAP-tag at the N-terminus of the endogenous Brd4; endogenous in cells; host or cells: mouse ESCs NMG, NMG SNAP-Brd4 clone 7 (CRISPR knock-in, homozygous)
Procedure: as §1
For real-time confocal and STED imaging, example implementations may program the wave generator to scan 2 μm×2 μm or 1 μm×1 μm xy areas in 0.8 sec or 0.2 sec respectively. 3D scanning was performed (via, e.g., detection system 150) by acquiring 5 xy scans while moving the stage by 0.5 μm in z between scans. TTL pulses corresponding to single-photon events from the APDs, together with the trigger pulses from the wave generator were detected using a field-programmable gate array (FPGA) data acquisition system (National Instruments, PCIe-7852R).
Before imaging, cells were seeded onto 8-chamber coverglass (LabTek, 155411) coated with 5 μg/ml laminin (BioLamina LN511), in −2i media (OMG) or +2i media (NMG) and appropriate drugs. For SiR staining, cells were labeled with media containing 0.3 μM SiR-BG for 10 mins, at 37° C., followed by three washes with new media.
To generate OMG or NMG SNAP-Brd4 targeted cells, OMG-1 or NMG mESCs (1×106) were transfected with 10 μg SNAP-Brd4 donor vector and 0.6 μg espCas9-gRNA-Brd4 vector. […]

Cc1sc2c(c1C)C(c1ccc(Cl)cc1)=N[C@@H](CC(=O)OC(C)(C)C)c1nnc(C)n1-2 [JQ1]
Nanog burst duration ([1]; JQ1 titration): largely unaffected
Hill equation n, Nanog burst frequency vs. [JQ1] ([1]; Nanog, mESCs): 0.9±0.3
Nanog burst amplitude ([1]; at higher [JQ1]): modest reduction
Nanog burst frequency ([1]; at low [JQ1]): dramatically reduced
Hill curve n, relative Brd4 signal at Nanog vs. [JQ1] [2]: 1.0
